Results taken from patent publication US20250214932A1, “T-TYPE CALCIUM CHANNEL MODULATORS COMPRISING AN AZASPIRONONANE CORE AND METHODS OF USE THEREOF” (Praxis Precision Medicines, Inc., priority 2022, published 2025).
Like-named read-outs stand apart in the source and are kept apart here.

Biological target: Human Cav3.1 (Homo sapiens (Human), UniProt O43497)
Test: Human Cav3.1 calcium channel patch clamp assay (SyncroPatch 384PE, HEK-293 natClytin/TASK1+Cav3.1 cell line)
Assay type: cell-based
Procedure: Pulse generation and data collection were performed with PatchController384 V1.3.0 and DataController384 V1.2.1 (Nanion Technologies). Off-line analysis was performed using Excel and Graphpad Prism (V 8.4.2) with complete data files uploaded to Dotmatics. The access resistance and apparent membrane capacitance were estimated using built-in protocols. Current was recorded in whole cell configuration from a population of cells. The cells were lifted, triturated, and resuspended at 800,000 cells/ml. The cells were allowed to recover in the cell hotel prior to experimentation. Currents were recorded at room temperature. The external solution contained the following (in mM): NaCl 80, NMDG 60, KCl 4, MgCl2 1, CaCl2 6, glucose 5 and HEPES 10 (pH=7.4, Osmolarity ˜300 mOsm). The extracellular solution was used as the wash, reference and compound delivery solution. […] The compound plate was created at 2× concentrated in the extracellular solution. The compound was diluted to 1:2 when added to the recording well. The amount of DMSO in the extracellular solution was held constant at the level used for the highest tested concentration. For the voltage clamp experiments on Cav3.1, data were sampled at 10 KHz. After establishment of the seal and the passage in the whole cell configuration, the cells were held at −120 mV. Cav3.1 current was evoked using a 100 ms step to −20 mV (to measure resting state block), followed by a 1600 ms step to −65 mV and a second 100 ms step to −20 mV (to measure voltage dependent block). The voltage protocol was applied every 15 seconds in the absence and in the presence of the compounds under investigation. […] Current amplitude (pA) was measured in the peak 1 and 2. The average of last 3 sweeps of each liquid period (vehicle, compound under investigation, full block) was calculated. Nickel-sensitive current was used to calculate the % of inhibition in the presence of the compound under investigation.
Pulse generation and data collection were performed with PatchController384 V1.3.0 and DataController384 V1.2.1 (Nanion Technologies). Off-line analysis was performed using Excel and Graphpad Prism (V 8.4.2) with complete data files uploaded to Dotmatics. The access resistance and apparent membrane capacitance were estimated using built-in protocols. Current was recorded in whole cell configuration from a population of cells.
The cells were lifted, triturated, and resuspended at 800,000 cells/ml. The cells were allowed to recover in the cell hotel prior to experimentation. Currents were recorded at room temperature. The external solution contained the following (in mM): NaCl 80, NMDG 60, KCl 4, MgCl2 1, CaCl2 6, glucose 5 and HEPES 10 (pH=7.4, Osmolarity ˜300 mOsm). The extracellular solution was used as the wash, reference and compound delivery solution.
The compound plate was created at 2× concentrated in the extracellular solution. The compound was diluted to 1:2 when added to the recording well. The amount of DMSO in the extracellular solution was held constant at the level used for the highest tested concentration. For the voltage clamp experiments on Cav3.1, data were sampled at 10 KHz. After establishment of the seal and the passage in the whole cell configuration, the cells were held at −120 mV. Cav3.1 current was evoked using a 100 ms step to −20 mV (to measure resting state block), followed by a 1600 ms step to −65 mV and a second 100 ms step to −20 mV (to measure voltage dependent block). The voltage protocol was applied every 15 seconds in the absence and in the presence of the compounds under investigation. […] Current amplitude (pA) was measured in the peak 1 and 2. The average of last 3 sweeps of each liquid period (vehicle, compound under investigation, full block) was calculated. Nickel-sensitive current was used to calculate the % of inhibition in the presence of the compound under investigation.

[1] = voltage dependent block (VDB), read-out: Cav3.1 (VDB) IC50
[2] = patch clamp, HEK-293 natClytin/TASK1+Cav3.1 cells, class symbols, read-out: Human Cav3.1 IC50

Chain of Human Cav3.1 (O43497 whole entry): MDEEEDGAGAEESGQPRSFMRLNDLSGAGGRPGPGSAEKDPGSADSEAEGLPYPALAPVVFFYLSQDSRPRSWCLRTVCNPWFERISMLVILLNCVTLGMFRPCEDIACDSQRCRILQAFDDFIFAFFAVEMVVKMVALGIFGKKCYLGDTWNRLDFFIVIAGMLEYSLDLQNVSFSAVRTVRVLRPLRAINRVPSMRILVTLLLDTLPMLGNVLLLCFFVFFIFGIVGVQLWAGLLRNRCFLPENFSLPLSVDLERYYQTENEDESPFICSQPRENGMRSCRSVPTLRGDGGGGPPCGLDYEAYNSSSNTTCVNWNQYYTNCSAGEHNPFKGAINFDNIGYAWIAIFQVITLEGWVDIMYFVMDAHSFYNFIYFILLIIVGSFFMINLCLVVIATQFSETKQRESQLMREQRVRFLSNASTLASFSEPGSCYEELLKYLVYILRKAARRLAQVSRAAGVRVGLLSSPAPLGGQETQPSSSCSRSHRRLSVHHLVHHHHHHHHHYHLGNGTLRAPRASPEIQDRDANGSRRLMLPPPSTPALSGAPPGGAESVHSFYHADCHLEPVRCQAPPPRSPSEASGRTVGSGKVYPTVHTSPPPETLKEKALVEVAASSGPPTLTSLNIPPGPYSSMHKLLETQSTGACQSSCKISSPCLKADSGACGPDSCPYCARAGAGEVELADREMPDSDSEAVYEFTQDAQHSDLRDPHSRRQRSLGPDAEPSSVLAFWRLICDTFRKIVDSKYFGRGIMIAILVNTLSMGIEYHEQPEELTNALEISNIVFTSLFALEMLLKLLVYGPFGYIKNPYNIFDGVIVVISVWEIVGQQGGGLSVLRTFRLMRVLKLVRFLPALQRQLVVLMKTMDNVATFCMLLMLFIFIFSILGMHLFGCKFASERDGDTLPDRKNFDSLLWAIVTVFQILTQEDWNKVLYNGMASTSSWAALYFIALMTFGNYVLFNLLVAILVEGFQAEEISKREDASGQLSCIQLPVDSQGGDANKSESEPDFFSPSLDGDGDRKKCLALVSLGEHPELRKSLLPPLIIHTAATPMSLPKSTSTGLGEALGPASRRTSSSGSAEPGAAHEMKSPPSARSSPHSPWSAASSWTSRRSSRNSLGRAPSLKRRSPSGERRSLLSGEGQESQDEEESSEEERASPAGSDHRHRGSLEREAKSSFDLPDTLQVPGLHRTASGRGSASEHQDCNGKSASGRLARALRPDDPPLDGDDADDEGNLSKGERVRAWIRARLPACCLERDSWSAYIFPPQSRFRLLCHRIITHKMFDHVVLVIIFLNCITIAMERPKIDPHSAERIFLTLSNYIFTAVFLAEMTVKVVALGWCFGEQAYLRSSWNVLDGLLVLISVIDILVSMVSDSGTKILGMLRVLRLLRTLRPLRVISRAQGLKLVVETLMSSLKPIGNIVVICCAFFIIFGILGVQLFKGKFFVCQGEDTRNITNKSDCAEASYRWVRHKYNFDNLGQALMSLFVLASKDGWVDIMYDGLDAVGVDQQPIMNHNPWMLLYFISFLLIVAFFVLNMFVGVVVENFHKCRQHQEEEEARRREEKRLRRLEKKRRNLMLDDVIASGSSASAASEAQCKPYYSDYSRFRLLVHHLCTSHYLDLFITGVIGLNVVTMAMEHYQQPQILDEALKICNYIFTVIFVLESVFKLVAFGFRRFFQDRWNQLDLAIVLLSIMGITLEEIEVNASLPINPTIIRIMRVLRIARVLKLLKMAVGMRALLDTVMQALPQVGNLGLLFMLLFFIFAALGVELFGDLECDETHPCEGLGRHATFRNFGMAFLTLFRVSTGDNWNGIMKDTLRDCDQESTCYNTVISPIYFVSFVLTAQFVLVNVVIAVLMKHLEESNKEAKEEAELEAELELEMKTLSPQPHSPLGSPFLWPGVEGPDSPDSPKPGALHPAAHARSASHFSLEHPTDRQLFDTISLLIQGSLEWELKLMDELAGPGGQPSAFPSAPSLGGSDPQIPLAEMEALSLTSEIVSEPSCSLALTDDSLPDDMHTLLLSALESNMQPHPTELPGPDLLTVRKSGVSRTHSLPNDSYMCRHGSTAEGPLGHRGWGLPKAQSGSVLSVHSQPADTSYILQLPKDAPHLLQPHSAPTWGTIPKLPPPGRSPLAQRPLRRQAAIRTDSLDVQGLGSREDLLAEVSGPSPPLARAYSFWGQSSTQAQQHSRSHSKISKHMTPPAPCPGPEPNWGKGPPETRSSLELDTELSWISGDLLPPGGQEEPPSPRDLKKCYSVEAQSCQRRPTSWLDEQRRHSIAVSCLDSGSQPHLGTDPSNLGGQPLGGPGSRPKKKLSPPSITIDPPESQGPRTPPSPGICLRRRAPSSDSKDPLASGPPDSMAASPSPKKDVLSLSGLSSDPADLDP

| IC50 [1] [nM] | IC50 [2] [nM] | Compound |
| --- | --- | --- |
| 130 | – | O=C(Nc1cc(F)cc(Cl)c1)C1CCC2(CC1)CN(CC1(O)CCC(F)(F)CC1)C2 [Example 60] |
| 78.5 | < 1000 | CC(C)(C)NC(=O)CN1CC2(CCC(C(=O)Nc3cc(F)cc(C(F)F)c3)CC2)C1 [Example 9] |
| 492 | – | CC(C)(C)NC(=O)CN1CC2(CCC(C(=O)Nc3cccc(OC(F)(F)F)c3)CC2)C1 [Example 63] |
| 492 | – | O=C(CN1CC2(CCC(C(=O)Nc3ccc(F)c(C(F)F)c3)CC2)C1)NC1(C(F)(F)F)CC1 [Example 127] |
| – | 1000 to 10000 | COCCNC(=O)CN1CC2(CCC(C(=O)Nc3cc(F)cc(Cl)c3)CC2)C1 [Example 18] |
| 367 | < 1000 | CC1(CCN2CC3(CCC(C(=O)Nc4cc(F)cc(C(F)F)c4)CC3)C2)CC1 [Example 38] |
| 890 | < 1000 | O=C(Nc1cc(F)cc(Cl)c1)C1CCC2(CC1)CN(Cc1cccc(C(F)(F)F)c1)C2 [Example 24] |
| 1430 | – | COc1cccc(NC(=O)C2CCC3(CC2)CN(CC(=O)NC2(C(F)(F)F)CC2)C3)c1 [Example 112] |
| 1260 | – | CC(C)(C#N)CN1CC2(CCC(C(=O)Nc3cc(F)cc(Cl)c3)CC2)C1 [Example 121] |
| 663 | < 1000 | CC(C)(C)NC(=O)CN1CC2(CCC(C(=O)NC34CCC(CC3)CC4)CC2)C1 [Example 8] |
| 991 | – | Cc1cc(Cl)cc(NC(=O)C2CCC3(CC2)CN(CC2(C#N)CC2)C3)c1 [Example 136] |
| 1010 | – | COc1cc(F)cc(NC(=O)C2CCC3(CC2)CN(CCS(=O)(=O)C(C)(C)C)C3)c1 [Example 88] |
| 333 | – | O=C(Nc1cc(F)cc(Cl)c1)C1CCC2(CC1)CN(CC1(F)CCC(F)(F)CC1)C2 [Example 73] |
| 1260 | – | N#CC1(CN2CC3(CCC(C(=O)Nc4cc(Cl)cc(OC(F)F)c4)CC3)C2)CC1 [Example 137] |
| 370 | < 1000 | O=C(Nc1cc(F)cc(C(F)F)c1)C1CCC2(CC1)CN(CC1CCC(F)(F)CC1)C2 [Example 28] |
| 320 | < 1000 | CN(C(=O)CN1CC2(CCC(C(=O)Nc3cc(F)cc(C(F)F)c3)CC2)C1)C1CCCC1 [Example 35] |
| 238 | – | COc1cc(F)cc(NC(=O)C2CCC3(CC2)CN(CC(=O)NC2(C(F)(F)F)CC2)C3)c1 [Example 82] |
| 447 | – | CC1(C(=O)NCCN2CC3(CCC(C(=O)Nc4cc(F)cc(C(F)F)c4)CC3)C2)CCC1 [Example 53] |
| 302 | – | O=C(CN1CC2(CCC(C(=O)Nc3cccc(Cl)c3)CC2)C1)NC1(C(F)(F)F)CC1 [Example 104] |
| 252 | – | CC(C)(C)CCN1CC2(CCC(C(=O)Nc3cc(F)cc(Cl)c3)CC2)C1 [Example 161] |
| 142 | < 1000 | CCC(C)(C)NC(=O)CN1CC2(CCC(C(=O)Nc3cc(F)cc(Cl)c3)CC2)C1 [Example 10, N-(3-chloro-5-fluorophenyl)-2-(2-oxo-2-(tert-pentylamino)ethyl)-2-azaspiro[3.5]nonane-7-carboxamide] |

Second part, the compound before the results:

| Compound | IC50 [1] [nM] | IC50 [2] [nM] |
| --- | --- | --- |
| COc1cc(F)cc(NC(=O)C2CCC3(CC2)CN(CC2(C#N)CC2)C3)c1 [Example 138] | 2270 | – |
| CC(C)(NC(=O)CN1CC2(CCC(C(=O)Nc3cccc(OC(F)(F)F)c3)CC2)C1)C(F)(F)F [Example 70] | 333 | – |
| CC(C)(C)NC(=O)CN1CC2(CCC(C(=O)Nc3ccc(Cl)cc3)CC2)C1 [Example 3] | 724 | < 1000 |
| CC1(NC(=O)CN2CC3(CCC(C(=O)Nc4cc(F)cc(Cl)c4)CC3)C2)CC1 [Example 59] | 146 | – |
| N#CC1(CN2CC3(CCC(C(=O)Nc4cc(F)cc(C(F)F)c4)CC3)C2)CCC(F)(F)CC1 [Example 99] | 537 | – |
| CC1(OC(=O)CN2CC3(CCC(C(=O)Nc4cc(F)cc(Cl)c4)CC3)C2)CC1 [Example 64] | 617 | – |
| O=C(CN1CC2(CCC(C(=O)Nc3cc(F)cc(OC(F)F)c3)CC2)C1)NC1(C(F)(F)F)CC1 [Example 119] | 366 | – |
| CC(C)(C)NC(=O)CN1CC2(CCC(C(=O)Nc3cccc(OC(F)F)c3)CC2)C1 [Example 55] | 296 | – |
| COc1cc(Cl)cc(NC(=O)C2CCC3(CC2)CN(CC(=O)NC(C)(C)C)C3)c1 [Example 159] | 159 | – |
| CC(C)(C)CCN1CC2(CCC(C(=O)NC34CC5CC(CC(C5)C3)C4)CC2)C1 [Example 154] | 1290 | – |
| CC(C)(C)NC(=O)CN1CC2(CCC(C(=O)Nc3cc(F)cc(OC(F)F)c3)CC2)C1 [Example 7] | 118 | < 1000 |
| CC1(C)CCC(=O)N1CCN1CC2(CCC(C(=O)Nc3cc(F)cc(C(F)F)c3)CC2)C1 [Example 71] | 588 | – |
| O=C(CN1CC2(CCC(C(=O)Nc3cc(F)cc(C(F)F)c3)CC2)C1)NC1CCCC1 [Example 32] | 139 | < 1000 |
| N#CC1(CN2CC3(CCC(C(=O)Nc4cc(F)cc(C(F)F)c4)CC3)C2)CC1 [Example 134] | 1500 | – |
| CC(C)(C)NC(=O)CN1CC2(CCC(C(=O)Nc3cc(Cl)cc(Cl)c3)CC2)C1 [Example 1, 2-(2-(tert-butylamino)-2-oxoethyl)-N-(3,5-dichlorophenyl)-2-azaspiro[3.5]nonane-7-carboxamide] | 176 | < 1000 |
| N#CC1(CN2CC3(CCC(C(=O)Nc4cc(F)cc(Cl)c4)CC3)C2)CCC1 [Example 122] | 750 | – |
| CC(C)(CCN1CC2(CCC(C(=O)Nc3cc(F)cc(C(F)F)c3)CC2)C1)C(F)(F)F [Example 36] | 327 | < 1000 |

| Compound | IC50 [1] [nM] | IC50 [2] [nM] |
| --- | --- | --- |
| Cc1cc(Cl)cc(NC(=O)C2CCC3(CC2)CN(CC2(C#N)CCOCC2)C3)c1 [Example 141] | 1200 | – |
| [2H]C([2H])([2H])C(NC(=O)CN1CC2(CCC(C(=O)Nc3cc(F)cc(OC)c3)CC2)C1)(C([2H])([2H])[2H])C([2H])([2H])[2H] [Example 113] | 415 | – |
| Cc1cc(F)cc(C(=O)NCC2CCC3(CC2)CN(CC(=O)NC(C)(C)C)C3)c1 [Example 144] | 804 | – |
| O=C(CN1CC2(CCC(C(=O)Nc3ccc(F)c(OC(F)(F)F)c3)CC2)C1)NC1(C(F)(F)F)CC1 [Example 123] | 297 | – |
| O=C(CN1CC2(CCC(C(=O)Nc3ccc(Cl)c(F)c3)CC2)C1)NC1(C(F)(F)F)CC1 [Example 120] | 1070 | – |
| N#CC1(CN2CC3(CCC(C(=O)Nc4cc(F)cc(Cl)c4)CC3)C2)CCCC1 [Example 130] | 296 | – |
| CC(C)(C)NC(=O)CN1CC2(CCC(C(=O)NC34CC5CC(CC(C5)C3)C4)CC2)C1 [Example 26] | – | 1000 to 10000 |
| O=C(NC12CCC(CC1)CC2)C1CCC2(CC1)CN(CC1(F)CCC(F)(F)CC1)C2 [Example 149] | 688 | – |
| COc1cc(NC(=O)C2CCC3(CC2)CN(CC(=O)NC2(C(F)(F)F)CC2)C3)ccc1F [Example 125] | 588 | – |
| O=C(CN1CC2(CCC(C(=O)Nc3ccc(F)c(Cl)c3)CC2)C1)NC1(C(F)(F)F)CC1 [Example 115] | 219 | – |
| N#CC1(CN2CC3(CCC(C(=O)Nc4cc(F)cc(Cl)c4)CC3)C2)CCOC1 (stereo not drawn) [Example 142] | 2230 | – |
| CC1(C(=O)NCCN2CC3(CCC(C(=O)Nc4cc(F)cc(C(F)F)c4)CC3)C2)CC1 [Example 49] | 723 | – |
| Cc1cc(F)cc(NC(=O)C2CCC3(CC2)CN(CC(=O)NC2(C(F)(F)F)CC2)C3)c1 [Example 117] | 221 | – |
| N#CC1(CN2CC3(CCC(C(=O)Nc4cc(F)cc(Cl)c4)CC3)C2)CCC(F)(F)CC1 [Example 107] | 427 | – |
| COc1cc(NC(=O)C2CCC3(CC2)CN(CC(=O)NC2(C(F)(F)F)CC2)C3)ccc1Cl [Example 158] | 162 | – |
| CC(C)(C)ONC(=O)CN1CC2(CCC(C(=O)Nc3cc(F)cc(Cl)c3)CC2)C1 [Example 67] | 580 | – |
